Measurements from patent publication US9616064B2, “Rho kinase inhibitors and methods of use” (H. LEE MOFFITT CANCER CENTER AND RESEARCH INSTITUTE, INC., priority 2011, dated 2017).
Where two headings read alike, the source gives them in different places.

Legend:
ROCK1 = ROCK1 (Homo sapiens (Human), UniProt Q13464); assay: Z-lyte FRET assay to measure kinase inhibition, ROCK1; assay type: biochemical; conditions: for inhibition at 50 µM: read-out: ROCK1 % inhibition @ 50 μM, 50 μM compound; for inhibition at 100 µM: read-out: ROCK1 % inhibition @ 100 μM, 100 μM compound
ROCK2 = ROCK2 (Homo sapiens (Human), UniProt O75116); assay: Z-lyte FRET assay to measure kinase inhibition, ROCK2; assay type: biochemical
ROCK2, sequence (O75116 whole entry, species assumed): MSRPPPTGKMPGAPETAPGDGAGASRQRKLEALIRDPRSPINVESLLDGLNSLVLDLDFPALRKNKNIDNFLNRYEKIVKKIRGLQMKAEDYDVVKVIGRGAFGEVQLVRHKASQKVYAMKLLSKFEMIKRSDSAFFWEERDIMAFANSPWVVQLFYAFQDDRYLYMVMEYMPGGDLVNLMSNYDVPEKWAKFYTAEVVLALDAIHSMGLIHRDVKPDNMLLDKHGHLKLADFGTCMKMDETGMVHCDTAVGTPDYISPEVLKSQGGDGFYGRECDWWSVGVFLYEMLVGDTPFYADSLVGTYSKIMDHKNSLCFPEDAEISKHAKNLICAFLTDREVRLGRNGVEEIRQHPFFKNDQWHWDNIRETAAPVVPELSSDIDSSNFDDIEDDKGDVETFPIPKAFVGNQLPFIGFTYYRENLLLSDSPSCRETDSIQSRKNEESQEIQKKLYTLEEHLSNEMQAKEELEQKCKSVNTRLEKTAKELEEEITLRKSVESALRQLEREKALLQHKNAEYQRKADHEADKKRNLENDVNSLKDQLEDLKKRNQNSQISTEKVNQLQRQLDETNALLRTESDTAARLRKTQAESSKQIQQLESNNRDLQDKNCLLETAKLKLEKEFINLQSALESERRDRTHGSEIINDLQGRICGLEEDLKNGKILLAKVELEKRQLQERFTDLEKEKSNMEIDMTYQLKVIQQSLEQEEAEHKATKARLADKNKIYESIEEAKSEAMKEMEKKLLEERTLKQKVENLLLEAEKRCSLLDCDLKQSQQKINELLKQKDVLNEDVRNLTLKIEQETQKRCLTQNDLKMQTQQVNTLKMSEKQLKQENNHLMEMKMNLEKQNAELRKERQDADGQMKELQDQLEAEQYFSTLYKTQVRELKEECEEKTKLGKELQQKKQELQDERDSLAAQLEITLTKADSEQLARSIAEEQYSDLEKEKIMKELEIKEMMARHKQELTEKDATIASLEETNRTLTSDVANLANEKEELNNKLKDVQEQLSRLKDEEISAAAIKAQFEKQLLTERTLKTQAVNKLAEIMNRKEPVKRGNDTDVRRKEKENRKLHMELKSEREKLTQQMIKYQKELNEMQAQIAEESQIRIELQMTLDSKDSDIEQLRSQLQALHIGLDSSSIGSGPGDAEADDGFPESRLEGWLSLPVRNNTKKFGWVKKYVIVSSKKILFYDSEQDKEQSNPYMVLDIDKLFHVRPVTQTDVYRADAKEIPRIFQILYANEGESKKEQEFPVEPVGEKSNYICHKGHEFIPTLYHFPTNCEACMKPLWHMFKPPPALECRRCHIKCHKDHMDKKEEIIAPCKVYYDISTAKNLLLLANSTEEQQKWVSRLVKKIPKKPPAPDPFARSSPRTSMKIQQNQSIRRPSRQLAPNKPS

ROCK1, sequence (Q13464 whole entry): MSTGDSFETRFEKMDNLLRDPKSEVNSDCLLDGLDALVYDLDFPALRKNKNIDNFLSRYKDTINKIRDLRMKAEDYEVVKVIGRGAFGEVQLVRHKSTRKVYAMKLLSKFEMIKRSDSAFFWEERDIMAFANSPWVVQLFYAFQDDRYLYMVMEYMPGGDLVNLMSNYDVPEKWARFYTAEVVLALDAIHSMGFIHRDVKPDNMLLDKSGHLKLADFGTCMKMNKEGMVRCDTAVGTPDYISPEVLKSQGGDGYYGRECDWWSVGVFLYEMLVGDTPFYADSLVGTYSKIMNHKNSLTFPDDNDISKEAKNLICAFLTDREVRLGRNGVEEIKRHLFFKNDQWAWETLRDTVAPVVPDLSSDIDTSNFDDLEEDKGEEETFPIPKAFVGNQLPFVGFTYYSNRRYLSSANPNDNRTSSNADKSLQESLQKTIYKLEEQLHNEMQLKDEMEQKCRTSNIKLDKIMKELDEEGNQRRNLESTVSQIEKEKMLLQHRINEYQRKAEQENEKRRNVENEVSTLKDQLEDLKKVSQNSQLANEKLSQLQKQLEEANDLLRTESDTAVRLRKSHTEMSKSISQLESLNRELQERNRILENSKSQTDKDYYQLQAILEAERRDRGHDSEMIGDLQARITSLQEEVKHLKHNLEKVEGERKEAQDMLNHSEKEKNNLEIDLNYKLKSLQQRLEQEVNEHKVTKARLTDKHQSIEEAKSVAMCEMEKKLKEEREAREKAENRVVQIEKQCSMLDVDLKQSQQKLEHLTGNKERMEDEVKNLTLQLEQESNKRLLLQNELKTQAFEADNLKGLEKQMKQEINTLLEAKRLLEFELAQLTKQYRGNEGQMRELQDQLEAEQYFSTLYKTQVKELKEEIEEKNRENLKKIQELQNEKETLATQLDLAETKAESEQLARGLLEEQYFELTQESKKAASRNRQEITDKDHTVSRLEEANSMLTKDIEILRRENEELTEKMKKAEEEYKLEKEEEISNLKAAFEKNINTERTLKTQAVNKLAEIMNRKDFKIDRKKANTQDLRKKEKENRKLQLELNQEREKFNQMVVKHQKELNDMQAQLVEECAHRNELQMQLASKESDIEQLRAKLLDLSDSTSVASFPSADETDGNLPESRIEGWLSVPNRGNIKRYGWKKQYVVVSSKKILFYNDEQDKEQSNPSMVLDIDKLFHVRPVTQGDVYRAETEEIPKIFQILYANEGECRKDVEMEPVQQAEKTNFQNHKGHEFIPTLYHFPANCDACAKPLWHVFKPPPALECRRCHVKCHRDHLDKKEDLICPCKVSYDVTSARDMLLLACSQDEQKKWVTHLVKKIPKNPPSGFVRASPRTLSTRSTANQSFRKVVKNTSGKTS

Row | inhibition at 50 µM (ROCK1) | IC50 (ROCK1; read-out: ROCK1 IC50) | SMILES | other results
1 | 2.1 ± 1.9% | – | Nc1nccc(Nc2ccc(S(=O)(=O)NC(=O)c3ccccc3)cc2)n1 | –
2 | 18 ± 1% | – | Nc1nccc(N2c3ccccc3CC2c2ccccc2)n1 (stereo not shown) | –
3 | 86 ± 5% | 4.9 ± 0.5 µM | Nc1nccc(-n2ccc3ccc(F)cc32)n1 | IC50 (ROCK2): 1.7 ± 0.1 µM
4 | 89 ± 1% | 2.1 ± 0.3 µM | Nc1nccc(-n2ccc3cc(Br)ccc32)n1 | IC50 (ROCK2): 1.7 ± 0.3 µM
5 | 88 ± 0.3% | 1.2 ± 0.2 µM | Nc1nccc(-n2ccc3ccc(Cl)cc32)n1 | IC50 (ROCK2): 1 ± 0.3 µM
6 | 80 ± 3% | 0.8 ± 0.5 µM | Nc1nccc(-n2ccc3c(OCc4ccccc4)cccc32)n1 | IC50 (ROCK2): 0.4 ± 0.1 µM
7 | 82 ± 5% | 8.3 ± 0.9 µM | Cc1ccc2c(ccn2-c2ccnc(N)n2)c1 | IC50 (ROCK2): 7.1 ± 2.1 µM
8 | 9 ± 1% | – | Nc1nccc(-n2ccc3c(C(=O)Nc4ccccc4)cccc32)n1 | –
9 | 8 ± 3% | – | Nc1nccc(-n2ccc3cc(NC(=O)c4ccccc4)ccc32)n1 | –
10 | 17 ± 2% | – | Nc1nccc(-n2ccc3cc(C(=O)Nc4ccccc4)ccc32)n1 | –
11 | 10 ± 2% | – | Nc1nccc(-n2ccc3c(OCc4cccc(Cl)c4F)cccc32)n1 | –
12 | 21 ± 14% | – | Nc1nccc(-n2ccc3cc(OCCc4ccccc4)ccc32)n1 | –
13 | -5 ± 2% | – | Nc1nccc(-n2ccc3ccc(OCc4ccccc4)cc32)n1 | –
14 | -5 ± 0.5% | – | Nc1nccc(-n2ccc3cccc(OCc4ccccc4)c32)n1 | –
15 | 39.2 ± 4.19% | – | Nc1nccc(-n2ccc3c(C(=O)NCc4ccccc4Cl)cccc32)n1 | –
16 | 31 ± 10% | – | Nc1nccc(-n2ccc3c(C(=O)NCc4ccc(Cl)cc4)cccc32)n1 | –
17 | 19.4 ± 13.7% | – | COc1ccc(CNC(=O)c2cccc3c2ccn3-c2ccnc(N)n2)cc1 | –

Row | inhibition at 50 µM (ROCK1) | IC50 (ROCK1; read-out: ROCK1 IC50) | SMILES | other results
18 | – | 13 ± 6.81 µM | COc1cccc(CC(=O)Nc2cccc3c2ccn3-c2ccnc(N)n2)c1 | inhibition at 100 µM (ROCK1): 62%
19 | – | 3.26 ± 0.57 µM | CS(=O)(=O)Nc1cccc(CNC(=O)c2cccc3c2ccn3-c2ccnc(N)n2)c1 | inhibition at 100 µM (ROCK1): 100%
20 | – | 1.39 ± 0.26 µM | CC(=O)Nc1cccc(CNC(=O)c2cccc3c2ccn3-c2ccnc(N)n2)c1 | inhibition at 100 µM (ROCK1): 117%
21 | – | 1.77 ± 0.24 µM | CC[C@@H](NC(=O)c1cccc2c1ccn2-c1ccnc(N)n1)c1ccccc1 | inhibition at 100 µM (ROCK1): 122%
22 | – | 15.4 ± 6.04 µM | COC[C@H](NC(=O)c1cccc2c1ccn2-c1ccnc(N)n1)c1ccccc1 | inhibition at 100 µM (ROCK1): 91%
23 | – | 15.2 ± 3.74 µM | COc1cccc(CN(C)C(=O)c2cccc3c2ccn3-c2ccnc(N)n2)c1 | inhibition at 100 µM (ROCK1): 89%
24 | – | 15.4 ± 4.02 µM | COc1cccc(CNC(=O)c2cccc3c2ccn3-c2ccnc(NC(C)=O)n2)c1 | inhibition at 100 µM (ROCK1): 80%
25 | – | 9.31 ± 8.68 µM | COCCOc1cccc(CNC(=O)c2cccc3c2ccn3-c2ccnc(N)n2)c1 | inhibition at 100 µM (ROCK1): 86%
26 | – | 3.37 ± 0.53 µM | CCOc1cccc(CNC(=O)c2cccc3c2ccn3-c2ccnc(N)n2)c1 | inhibition at 100 µM (ROCK1): 61%
27 | – | 40.3 ± 11 µM | CC(=O)N(C)c1cccc(CNC(=O)c2cccc3c2ccn3-c2ccnc(N)n2)c1 | inhibition at 100 µM (ROCK1): 47%
28 | – | 8.31 ± 7.39 µM | Nc1nccc(-n2ccc3c(C(=O)NCc4cccc(N5CCCC5=O)c4)cccc32)n1 | inhibition at 100 µM (ROCK1): 99%
29 | – | 7.3 ± 1.29 µM | COc1cccc(CNC(=O)c2cccc(Nc3ccnc(N)n3)c2)c1 | inhibition at 100 µM (ROCK1): 97%
30 | – | 0.213 ± 0.025 µM | COc1cccc([C@@H](C)NC(=O)c2cccc3c2ccn3-c2ccnc(N)n2)c1 | inhibition at 100 µM (ROCK1): 92%
31 | – | 1.38 ± 0.63 µM | COc1cccc([C@H](C)NC(=O)c2cccc3c2ccn3-c2ccnc(N)n2)c1 | inhibition at 100 µM (ROCK1): 97%
32 | 1.26 ± 0.79% | – | COc1cccc(CNC(=O)c2cccc3c2ccn3-c2cc(N)nc(N)n2)c1 | –
33 | – | 9.76 ± 0.86 µM | CC[C@H](NC(=O)c1cccc2c1ccn2-c1ccnc(N)n1)c1ccccc1 | inhibition at 100 µM (ROCK1): 88%

More lines, now with the values behind:

Row | SMILES | inhibition at 50 µM (ROCK1) | IC50 (ROCK1; read-out: ROCK1 IC50) | other results
34 | Nc1nccc(Nc2ccc(S(=O)(=O)Nc3ccnn3-c3ccccc3)cc2)n1 | 1.8 ± 0.8% | – | –
35 | Nc1nccc(Nc2ccc(S(=O)(=O)Nc3nccs3)cc2)n1 | 21 ± 10% | – | –
36 | Nc1nccc(Nc2ccc(S(=O)(=O)Nc3ccccn3)cc2)n1 | 2.8 ± 2.3% | – | –
37 | Nc1nccc(Nc2ccc(S(=O)(=O)N3CCN(c4cccc(C(F)(F)F)c4)CC3)cc2)n1 | -0.3 ± 0.7% | – | –
38 | CC(=O)NS(=O)(=O)c1ccc(Nc2ccnc(N)n2)cc1 | 9 ± 1.5% | – | –
39 | Nc1nccc(Nc2ccc(S(=O)(=O)NCc3ccccc3)cc2)n1 | 30 ± 1% | – | –
40 | NS(=O)(=O)c1ccc(Nc2ncnc3nc[nH]c23)cc1 | 54 ± 4% | 42.7 ± 0.9 µM | –
41 | Nc1nc(Nc2ccc(S(N)(=O)=O)cc2)c2[nH]cnc2n1 | 9 ± 2% | – | –
42 | Nc1nccc(Nc2ccc(S(=O)(=O)Nc3ccccc3)cc2)n1 | 46 ± 4% | > 100 µM | –
43 | Cc1cc(Nc2cccc(S(N)(=O)=O)c2)nc(N)n1 | 0.8 ± 1.2% | – | –
44 | CC(=O)Nc1cccc(Nc2ccnc(N)n2)c1 | 42 ± 6% | – | –
45 | CC(=O)N1CCc2ccc(Nc3ccnc(N)n3)cc21 | 10 ± 12% | – | –
46 | Nc1nccc(Nc2cc(S(N)(=O)=O)ccc2O)n1 | 36 ± 5% | – | –
47 | COc1cc(NC(C)=O)ccc1Nc1ccnc(N)n1 | 2 ± 1% | – | –
48 | Nc1nccc(Nc2ccc(CC(=O)O)cc2)n1 | 2 ± 1% | – | –
49 | CS(=O)(=O)c1ccc(Nc2ccnc(N)n2)cc1 | 38 ± 1% | – | –
50 | Nc1nccc(Nc2ccc3[nH]ccc3c2)n1 | 37 ± 1% | – | –
51 | Nc1nccc(Nc2ccc3cc[nH]c3c2)n1 | 23 ± 1% | – | –
52 | CCc1ccc(Nc2ccnc(N)n2)cc1 | 36 ± 6% | – | –
53 | CCOc1ccc(Nc2ccnc(N)n2)cc1 | 31 ± 4% | – | –
54 | Nc1nccc(Oc2ccccc2)n1 | -0.5 ± 1% | – | –
55 | Nc1nccc(Oc2ccc(S(N)(=O)=O)cc2)n1 | -0.3 ± 1% | – | –
56 | NC(=O)c1ccc(Oc2ccnc(N)n2)cc1 | 2 ± 1% | – | –

Row | SMILES | inhibition at 50 µM (ROCK1) | IC50 (ROCK1; read-out: ROCK1 IC50) | other results
57 | Clc1nccc(N2CCc3ccccc32)n1 | -3 ± 1% | – | –
58 | c1ccc(Nc2nccc(N3CCc4ccccc43)n2)cc1 | -1 ± 2% | – | –
59 | Nc1nccc(N2CCc3ccccc3C2)n1 | 6 ± 1% | – | –
60 | Nc1nccc(N2CCc3cc([N+](=O)[O-])ccc32)n1 | 24 ± 2% | – | –
61 | Nc1nccc(N2CCc3cc(F)ccc32)n1 | 89 ± 7% | 1.2 ± 0.2 µM | IC50 (ROCK2): 0.7 ± 0.1 µM
62 | CS(=O)(=O)c1ccc2c(c1)CCN2c1ccnc(N)n1 | 49 ± 4% | 41 ± 2.3 µM | IC50 (ROCK2): 37.9 ± 2 µM
63 | CC1Cc2cc([N+](=O)[O-])ccc2N1c1ccnc(N)n1 (stereo not shown) | 98 ± 2% | 0.5 ± 0.1 µM | IC50 (ROCK2): 0.4 ± 0.1 µM
64 | Nc1nccc(N2CCc3cc(Br)ccc32)n1 | 83 ± 5% | 1.7 ± 0.3 µM | IC50 (ROCK2): 1.2 ± 0.1 µM
65 | Nc1nccc(N2c3ccccc3CC2C(=O)O)n1 (stereo not shown) | 6 ± 0.4% | – | –
66 | CC1CN(c2ccnc(N)n2)c2ccccc21 (stereo not shown) | 93 ± 2% | 4.8 ± 0.5 µM | IC50 (ROCK2): 2.6 ± 0.1 µM
67 | CC1Cc2cc(Cl)ccc2N1c1ccnc(N)n1 (stereo not shown) | 87 ± 10% | 1.2 ± 0.1 µM | IC50 (ROCK2): 0.5 ± 0.03 µM
68 | Nc1nccc(N2CCc3cc(S(N)(=O)=O)ccc32)n1 | 73 ± 4% | 25.8 ± 2.6 µM | IC50 (ROCK2): 10.3 ± 0.9 µM
69 | CC1Cc2cc(F)ccc2N1c1ccnc(N)n1 (stereo not shown) | 97 ± 4% | 0.4 ± 0.1 µM | IC50 (ROCK2): 0.2 ± 0.01 µM
70 | Nc1nccc(N2CCc3ccc(F)cc32)n1 | 89 ± 4% | 3.7 ± 0.4 µM | IC50 (ROCK2): 1.34 ± 0.09 µM
71 | COc1ccc2ccn(-c3ccnc(N)n3)c2c1 | 88 ± 2% | 4.9 ± 0.5 µM | IC50 (ROCK2): 4.9 ± 1 µM
72 | COc1ccc2c(ccn2-c2ccnc(N)n2)c1 | 96 ± 3% | 0.4 ± 0.1 µM | IC50 (ROCK2): 0.25 ± 0.13 µM
73 | Nc1nccc(Nc2ccccc2OCc2ccccc2)n1 | 22 ± 4% | – | –
74 | c1ccc(COc2cccc3c2CCN3c2ncnc3[nH]ccc23)cc1 | 33 ± 4% | – | –
75 | Nc1nccc(-n2ccc3c(C(=O)NCc4ccccc4-c4ccccc4)cccc32)n1 | – | – | inhibition at 100 µM (ROCK1): 7%
76 | COc1cccc(CNS(=O)(=O)c2cccc(Nc3ccnc(N)n3)c2)c1 | – | 33.4 ± 8.52 µM | inhibition at 100 µM (ROCK1): 70%
77 | Nc1nccc(Nc2ccccc2Cl)n1 | – | – | inhibition at 100 µM (ROCK1): 39%
78 | Nc1nccc(Nc2cccc(Cl)c2)n1 | – | 5.71 ± 1.44 µM | inhibition at 100 µM (ROCK1): 89%
79 | Nc1nccc(Nc2ccc(S(N)(=O)=O)cc2)n1 [NSC-135784, reference compound] | – | – | IC50 (ROCK1; NCI sample, screening hit, weak inhibitor, read-out: IC50 (screen of NCI Diversity set, NCI sample)): 92 µM
